Experimental data reported in PubChem BioAssay (NCI).
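These data come from cells grown in 96-well plates and exposed to compound for 48 hours at five concentrations. Abbreviation: GI50, concentration required for 50% inhibition of growth. TGI: concentration producing complete growth inhibition.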

Legend:
Assay in all cases: growth of human tumour cells (NCI), 48 h
786-0 renal = system: 786-0 renal
A498 renal = system: A498 renal
A549 NSCLC = system: A549 NSCLC
ACHN renal = system: ACHN renal
BT-549 breast = system: BT-549 breast
CAKI-1 renal = system: CAKI-1 renal
CCRF-CEM leukemia = system: CCRF-CEM leukemia
COLO 205 colon = system: COLO 205 colon
DU-145 prostate = system: DU-145 prostate
HCC-2998 colon = system: HCC-2998 colon
HCT-116 colon = system: HCT-116 colon
HCT-15 colon = system: HCT-15 colon
HL-60(TB) leukemia = system: HL-60(TB) leukemia
HOP-62 NSCLC = system: HOP-62 NSCLC
HOP-92 NSCLC = system: HOP-92 NSCLC
HS 578T breast = system: HS 578T breast
HT29 colon = system: HT29 colon
IGROV1 ovarian = system: IGROV1 ovarian
K-562 leukemia = system: K-562 leukemia
KM12 colon = system: KM12 colon
LOX IMVI melanoma = system: LOX IMVI melanoma
M14 melanoma = system: M14 melanoma
MALME-3M melanoma = system: MALME-3M melanoma
MCF7 breast = system: MCF7 breast
MDA-MB-231 breast = system: MDA-MB-231 breast
MOLT-4 leukemia = system: MOLT-4 leukemia
NCI-H226 lung = system: NCI-H226 lung
NCI-H23 lung = system: NCI-H23 lung
NCI-H460 lung = system: NCI-H460 lung
NCI-H522 lung = system: NCI-H522 lung
NCI/ADR-RES ovarian = system: NCI/ADR-RES ovarian
OVCAR-3 ovarian = system: OVCAR-3 ovarian
OVCAR-4 ovarian = system: OVCAR-4 ovarian
OVCAR-5 ovarian = system: OVCAR-5 ovarian
OVCAR-8 ovarian = system: OVCAR-8 ovarian
PC-3 prostate = system: PC-3 prostate
RPMI-8226 leukemia = system: RPMI-8226 leukemia
RXF 393 renal = system: RXF 393 renal
SF-268 CNS = system: SF-268 CNS
SF-295 CNS = system: SF-295 CNS
SF-539 CNS = system: SF-539 CNS
SK-MEL-2 melanoma = system: SK-MEL-2 melanoma
SK-MEL-28 melanoma = system: SK-MEL-28 melanoma
SK-MEL-5 melanoma = system: SK-MEL-5 melanoma
SK-OV-3 ovarian = system: SK-OV-3 ovarian
SN12C renal = system: SN12C renal
SNB-19 CNS = system: SNB-19 CNS
SNB-75 CNS = system: SNB-75 CNS
SR leukemia = system: SR leukemia
SW-620 colon = system: SW-620 colon
T-47D breast = system: T-47D breast
TK-10 renal = system: TK-10 renal
U251 CNS = system: U251 CNS
UACC-257 melanoma = system: UACC-257 melanoma
UACC-62 melanoma = system: UACC-62 melanoma
UO-31 renal = system: UO-31 renal

What does the source list for `CCOc1cc(Cl)c(C(C)NC(=O)c2cccc(OC)c2)cc1OCC` (configuration not stated)?
GI50 (786-0 renal): 20.5 µM; TGI (786-0 renal): > 100 µM; GI50 (A498 renal): 0.561 µM; TGI (A498 renal): 21.9 µM; GI50 (A549 NSCLC): 8.59 µM; TGI (A549 NSCLC): > 100 µM; GI50 (ACHN renal): 20.1 µM; TGI (ACHN renal): > 100 µM; GI50 (BT-549 breast): 13.4 µM; TGI (BT-549 breast): > 100 µM; GI50 (CAKI-1 renal): 11.1 µM; TGI (CAKI-1 renal): > 100 µM; GI50 (CCRF-CEM leukemia): 11.7 µM; TGI (CCRF-CEM leukemia): > 100 µM; GI50 (COLO 205 colon): 7.17 µM; TGI (COLO 205 colon): 47.3 µM; GI50 (DU-145 prostate): 24.8 µM; TGI (DU-145 prostate): > 100 µM; GI50 (HCC-2998 colon): 28.8 µM; TGI (HCC-2998 colon): > 100 µM; GI50 (HCT-116 colon): 4.48 µM; TGI (HCT-116 colon): > 100 µM; GI50 (HCT-15 colon): 4.06 µM; TGI (HCT-15 colon): > 100 µM; GI50 (HL-60(TB) leukemia): 3.96 µM; TGI (HL-60(TB) leukemia): > 100 µM; GI50 (HOP-62 NSCLC): 6.94 µM; TGI (HOP-62 NSCLC): > 100 µM; GI50 (HOP-92 NSCLC): 12.1 µM; TGI (HOP-92 NSCLC): > 85.6 µM; GI50 (HS 578T breast): 11.8 µM; TGI (HS 578T breast): > 100 µM; GI50 (HT29 colon): 4.23 µM; TGI (HT29 colon): 44.6 µM; GI50 (IGROV1 ovarian): 17.5 µM; TGI (IGROV1 ovarian): > 100 µM; GI50 (K-562 leukemia): 3.9 µM; TGI (K-562 leukemia): > 100 µM; GI50 (KM12 colon): 7.19 µM; TGI (KM12 colon): > 100 µM; GI50 (LOX IMVI melanoma): 14.2 µM; TGI (LOX IMVI melanoma): > 100 µM; GI50 (M14 melanoma): 5.39 µM; TGI (M14 melanoma): > 100 µM; GI50 (MALME-3M melanoma): 9.42 µM; TGI (MALME-3M melanoma): > 100 µM; GI50 (MCF7 breast): 4.6 µM; TGI (MCF7 breast): > 100 µM; GI50 (MDA-MB-231 breast): 11.1 µM; TGI (MDA-MB-231 breast): > 100 µM; GI50 (MOLT-4 leukemia): 5.91 µM; TGI (MOLT-4 leukemia): > 100 µM; GI50 (NCI-H226 lung): 37.4 µM; TGI (NCI-H226 lung): > 100 µM; GI50 (NCI-H23 lung): 21.7 µM; TGI (NCI-H23 lung): > 100 µM; GI50 (NCI-H460 lung): 4.79 µM; TGI (NCI-H460 lung): > 54.8 µM; GI50 (NCI-H522 lung): 5.04 µM; TGI (NCI-H522 lung): 39.7 µM; GI50 (NCI/ADR-RES ovarian): 4.18 µM; TGI (NCI/ADR-RES ovarian): > 100 µM; GI50 (OVCAR-3 ovarian): 4.19 µM; TGI (OVCAR-3 ovarian): 29.4 µM; GI50 (OVCAR-4 ovarian): 17.9 µM; TGI (OVCAR-4 ovarian): 99.4 µM; GI50 (OVCAR-5 ovarian): > 52.7 µM; TGI (OVCAR-5 ovarian): > 100 µM; GI50 (OVCAR-8 ovarian): 25.7 µM; TGI (OVCAR-8 ovarian): > 100 µM; GI50 (PC-3 prostate): 15.1 µM; TGI (PC-3 prostate): > 100 µM; GI50 (RPMI-8226 leukemia): 16.1 µM; TGI (RPMI-8226 leukemia): > 100 µM; GI50 (RXF 393 renal): 9.21 µM; TGI (RXF 393 renal): 63 µM; GI50 (SF-268 CNS): 23.6 µM; TGI (SF-268 CNS): > 100 µM; GI50 (SF-295 CNS): 5.99 µM; TGI (SF-295 CNS): > 84.5 µM; GI50 (SF-539 CNS): 5.01 µM; TGI (SF-539 CNS): 34.3 µM; GI50 (SK-MEL-2 melanoma): 4.67 µM; TGI (SK-MEL-2 melanoma): > 100 µM; GI50 (SK-MEL-28 melanoma): 16.5 µM; TGI (SK-MEL-28 melanoma): > 100 µM; GI50 (SK-MEL-5 melanoma): 7.39 µM; TGI (SK-MEL-5 melanoma): 24.6 µM; GI50 (SK-OV-3 ovarian): 15.6 µM; TGI (SK-OV-3 ovarian): > 100 µM; GI50 (SN12C renal): 28.9 µM; TGI (SN12C renal): > 100 µM; GI50 (SNB-19 CNS): 12.6 µM; TGI (SNB-19 CNS): > 100 µM; GI50 (SNB-75 CNS): 4.79 µM; TGI (SNB-75 CNS): 49.9 µM; GI50 (SR leukemia): 3.92 µM; TGI (SR leukemia): > 100 µM; GI50 (SW-620 colon): 4 µM; TGI (SW-620 colon): > 100 µM; GI50 (T-47D breast): 7.06 µM; TGI (T-47D breast): > 100 µM; GI50 (TK-10 renal): 28.6 µM; TGI (TK-10 renal): > 100 µM; GI50 (U251 CNS): 8.18 µM; TGI (U251 CNS): > 100 µM; GI50 (UACC-257 melanoma): 37 µM; TGI (UACC-257 melanoma): > 100 µM; GI50 (UACC-62 melanoma): 8.81 µM; TGI (UACC-62 melanoma): > 100 µM; GI50 (UO-31 renal): 13.9 µM; TGI (UO-31 renal): > 100 µM
